What was measured:
[1] = system: MRE11 recruitment at the Cas9 target site (VEGFA site 3 on-target site; HEK293T, K562); experiment: MRE11 ChIP-qPCR at Cas9 target sites after exposure to DNA repair inhibitors; assay type: cell-based, human; details: for MRE11 recruitment at the target site (ChIP-qPCR): Cas9 with gRNA targeting VEGFA site 3, HEK293T, 12 hours, 1 μM KU-60648, 20 µM Nu7026, 10 μM Ku-55933, 1 μM Scr7, 10 μM Olaparib
Source text: (§1) The supernatant was decanted.

[2] = system: 53BP1 and BRCA1 foci in U2OS cells stably expressing Cas9-EGFP; experiment: Super-resolution STED microscopy of 53BP1 and BRCA1 repair foci after Cas9-induced DNA breaks; assay type: cell-based
Experimental: U2OS cells stably expressing Cas9-EGFP cells were seeded onto 35-mm, glass bottom dishes and transfected with mtgRNAs for 12-24 hrs. Cleavage was activated by UV light for 1 minute. To fix cells, 4% of pre-warmed paraformaldehyde in 1×PBS was used for 10 min. After rinsing 3 times with 1×PBS, cell membrane permeabilization was done with Triton-X used for 10 min. Then, cells 2% w/v BSA in 1×PBS was used for blocking for 1 hr and at room temperature. The primary antibodies, mouse anti-BRCA1 (D-9 sc-6954 Santa Cruz) and anti-53bpl (Abcam, ab172580), were diluted (1:500) in 1×PBS and directly added into the imaging dish. After 1 hr incubation, the primary antibody was removed, and the sample was washed with 1×PBS three times. The samples were then incubated for 30 minutes with the secondary antibodies Alexa-594 and Atto-647N diluted (1:1000) in 1×PBS. Finally, the sample was rinsed three times and mounted with Prolong Diamond mounting media (Thermo Fisher Scientific) overnight.
All STED images were obtained using a home-built two-color STED microscope (Han and Ha, 2015: Ma and Ha, 2019). In short, a femtosecond laser beam with a repetition rate of 80 MHz from a Ti: Sapphire laser head (Mai Tai HP, Spectra-Physics) is split into two parts: one part produces an excitation beam coupled into a photonic crystal fiber (Newport) for wide-spectrum light generation. […]

[3] = system: Cas9 editing of ACTB; experiment: Sequencing of insertion-deletion mutations (indels) after Cas9 targeting ACTB; assay type: cell-based; details: 48 hours after Cas9 editing; especially +1 insertions reduced in favor of larger -3 deletions
Experimental: Genomic DNA was extracted using the DNeasy Blood & Tissue Kit (Qiagen 69504) following manufacturer instructions. Approximately 1 million cells were used from cell lines and iPSCs. Approximately 10-20 μL of mouse liver cell suspension was used out of 1.5 mL total, and the genome extraction protocol included the Buffer ATL step since this sample is tissue.
Genomic DNA samples were amplified with PCR using Q5 Hot Start High-Fidelity 2X Master Mix (New England BioLabs M0494). For example, the primer set for amplifying around the FANCF site 2 on-target site is NGS_FANCFs2_ON_F and NGS_FANCFs2_ON_R. After amplicon PCR, cleanup was performed using 1.4×AMPure XP (Beckman Coulter A63881) following the manufacturer's instructions. Dual-indexing PCR was performed using KAPA HiFi HotStart ReadyMix (Roche 07958935001) and PCR cleanup was performed using 1×AMPure XP. Samples were quantified using QuBit (Thermo Fisher Scientific), pooled, diluted, and loaded onto a MiSeq (Illumina). […]
Sequencing reads were either demultiplexed automatically using MiSeq Reporter (Illumina) or with a custom Python script to individual FASTQ files. For indel calling, sequencing reads were scanned for exact matches to two 20-bp sequences that flank +/−20 bp from the ends of the target sequence. If no exact matches were found, the read was excluded from analysis. […]

[4] = system: MRE11 at Cas9 on- and off-target sites in K562 cells; experiment: MRE11 ChIP-seq with BLENDER off-target detection (DISCOVER-Seq+) in K562 cells; assay type: cell-based, human
Source text: as §1

[5] = system: MRE11 at Cas9 TRA target sites in primary human T-cells; experiment: DISCOVER-Seq+ in primary human T-cells with Cas9 targeting TRA (CAR knock-in); assay type: cell-based
Source text: as §1

[6] = system: MRE11 at Cas9 PCSK9 target sites in mouse liver; experiment: DISCOVER-Seq+ in liver of mice given adenovirus Cas9/gRNA targeting PCSK9; assay type: in vivo, mouse (C57BL/6J)
Experimental: For in vivo gene delivery, 8-10 week old mice were anesthetized with 2.5% isofluorane/oxygen mixture. Mice received a single retro-orbital injection of 1×10^9 infectious adenoviral particles (Ad-Cas9-U6-mPCSK9-sgRNA) in 100 μL sterile saline. Immediately following, mice received intraperitoneal delivery of KU-60648 dosed at 25 mg/kg (or vehicle only) in 100 μL of citrate buffer, or 100 μL of citrate buffer vehicle. Mice received a dose of KU-60648 or vehicle every 12 hrs via intraperitoneal injection.
At the experimental endpoint of 12 h, mice were anesthetized with isofluorane and euthanized via cervical dislocation. Liver tissue was harvested, washed 3× in 2 mL PBS with 1× protease inhibitor (Halt™ Protease Inhibitor Cocktail, Thermo), then disrupted the tissue in 1 mL PBS with 1× protease inhibitor using a loose-fitting Dounce homogenizer. For MRE11 ChIP-seq, homogenized tissue was placed on ice and used immediately.
as §1

[7] = previous evaluation, ref [21]; cited from earlier work

## O=c1cc(-c2cccc3c2Sc2ccccc2S3)oc(N2CCOCC2)c1 [Ku-55933]
[1]
  MRE11 recruitment at the target site (ChIP-qPCR): did not exhibit a clear effect

## CCN1CCN(CC(=O)Nc2ccc(-c3cccc4c(=O)cc(N5CCOCC5)oc34)c3sc4ccccc4c23)CC1 [Ku-60648, 2-(4-ethylpiperazin-1-yl)-N-[4-(2-morpholin-4-yl-4-oxochromen-8-yl)dibenzothiophen-1-yl]acetamide]
[1]
  MRE11 recruitment at the target site (ChIP-qPCR): significantly increased MRE11 recruitment
[1]; VEGFA site 2 (4 h, 12 h, 24 h) and HEK site 4 in HEK293T, FANCF site 2 in K562, versus without inhibitor, p=0.0001, n=14
  estimated RPM enrichment normalized to the no drug sample (MRE11 ChIP-qPCR): significantly higher
[2]; Cas9 with multi-target gRNA targeting over 100 locations
  53BP1 foci relative to BRCA1: reduction in 53BP1 foci relative to BRCA1
[2]; without Cas9
  number of 53BP1 and BRCA1 foci in the absence of Cas9 (DNA damage by inhibitor alone): did not change the number of 53BP1 and BRCA1 foci
[3]
  indel editing after Cas9 targeting ACTB: reduction in editing
[4]; K562, 12 hours after Cas9 delivery, FANCF site 2 or VEGFA site 2 gRNA, p<1E-3
  MRE11 ChIP-seq enrichment at all discovered on- and off-target sites: significantly increased MRE11 ChIP-seq enrichment
[4]; VEGFA site 2 gRNA, K562
  fold increase in discovered Cas9 target sites versus without DNA-PKcs inhibition: over 5 fold
[4]; VEGFA site 2 gRNA, K562, with DNA-PKcs inhibition (36 sites without)
  total Cas9 target sites discovered: 181
[5]; Cas9 targeting TRA, 12 hours (4 with DISCOVER-Seq)
  off-target sites identified genome-wide: 20
[5]; Cas9 targeting TRA, versus DISCOVER-Seq without drug
  MRE11 enrichment at all discovered sites: significantly greater MRE11 enrichment
[5]; samples without Cas9
  MRE11 enrichment in samples without Cas9 (negative control): did not exhibit any change in enrichment
[6]; 25 mg/kg b.i.d., mouse liver (18 sites with vehicle), p<0.05
  average number of target sites identified across 5 biological replicates: 27
[6]; 25 mg/kg b.i.d., mouse liver (51 with vehicle)
  target sites identified, sequencing reads pooled across all 5 replicates: 101
[6]; 25 mg/kg peritoneal b.i.d., versus without DNA-PKcs inhibition, p<1E-4
  MRE11 ChIP-seq signal in liver: significantly increased MRE11 ChIP-seq signal
[7]
  penetration into tissue: strongly penetrations into tissue including tumors
  pharmacokinetics: good pharmacokinetics

## O=c1cc(N2CCOCC2)oc2c1ccc1ccccc12 [Nu7026, 2-(morpholin-4-yl)benzo (h) chromen-4-one]
[1]
  MRE11 recruitment at the target site (ChIP-qPCR): significantly increased MRE11 recruitment

## O=C(c1cc(Cc2n[nH]c(=O)c3ccccc23)ccc1F)N1CCN(C(=O)C2CC2)CC1 [Olaparib]
[1]
  MRE11 recruitment at the target site (ChIP-qPCR): did not exhibit a clear effect

## O=c1[nH]c(=S)[nH]c(N=Cc2ccccc2)c1N=Cc1ccccc1 [Scr7]
[1]
  MRE11 recruitment at the target site (ChIP-qPCR): suppressed MRE11 recruitment
